Patent publication US7977379B2, “Method for angiogenesis inhibition or immunostimulation” (priority 2002, dated 2011)

Key:
[1] = system: angiogenesis induced by means of MATRIGEL matrix (heparin, a-FGF); assay: Test Example 4: angiogenesis induced by […] matrix (same method as test example 1); assay type: in vivo, C57BL/6 female mice; conditions: for angiogenesis inhibition effect (in words): MATRIGEL weight and hemoglobin vs control group; for MATRIGEL weight / Quantity of hemoglobin: sixth day, n=5, mean±SE
Experimental: More specifically, normal mice (5 mice/1 group) were used after breeding C57BL/6 female mice (5 week old, purchased from Charles River JAPAN, Inc.) preliminarily for one week. While cooling test materials as shown in the following, each of the test materials 0.5 ml were transplanted to subcutaneous of abdomen of the mice. […] was taken out on the sixth day after transplantation, and state of angiogenesis was observed. In addition, the […] was freeze-dried, and it was weighed. […] Group 0 of nothing addition: […]

[2] = system: angiogenesis induced by means of MATRIGEL matrix (heparin, a-FGF); assay: Test Example 1: angiogenesis induced by […] matrix transplanted subcutaneously (method of Passaniti et al); assay type: in vivo, C57BL/6 female mice; conditions: for angiogenesis inhibition effect (in words): MATRIGEL weight and hemoglobin vs control group; for MATRIGEL Matrix weight / Quantity of hemoglobin: sixth day, n=5, mean±SE; for MATRIGEL Matrix weight: freeze-dried
From the text: Angiogenesis inhibition action of anhydrous glutamic acid, its derivatives, and various processed materials containing them concerning the present invention was examined by degree of angiogenesis induced by means of […]™ matrix (made by Becton Dikinson Labware Company, it is “cell culture backing material”, following “[…]”.) according to a method of Passaniti et al (Laboratory Invest., Vol. 67, Page 519-528, 1992).
An example of the […] matrix is shown with the following: BD Matrigel Basement Membrane Matrix is a solubilized basement membrane preparation extracted from the Engelbreth-Holm-Swarm (EHS) mouse sarcoma, a tumor rich in ECM proteins. Its major component is laminin, followed by collagen IV, heparan sulfate proteoglycans, entactin and nidogen.35 It also contains TGF-β fibroblast growth factor, tissue plasminogen activator36 and other growth factors which occur naturally in the EHS tumor. At room temperature, BD Matrigel Matrix polymerizes to produce biologically active matrix material resembling the mammalian cellular basement membrane.
More specifically, normal mice (5 mice/1 group) were used after breeding C57BL/6 female mice (5 week old, purchased from Charles River JAPAN, Inc.) preliminarily for one week. While cooling test materials as shown in the following, each of the test materials 0.5 ml were transplanted to subcutaneous of abdomen of the mice. […] was taken out on the sixth day after transplantation, and state of angiogenesis was observed. In addition, the […] was freeze-dried, and it was estimated the weight. Furthermore, pure water 1 ml was added to the […]. After homogenizing by Polytron and centrifuging at 2000 rpm for five minutes, supernatant was filtrated through filter with 0.2 μm and hemoglobin dosage was measured by using Hemoglobin-TestWako™ (made by Wako Pure Chemical Industries, Ltd.).
Group 0 of nothing addition: […]
Control group: […], heparin (64 units), Acidic Fibroblast Growth Factor (it is abbreviated to a-FGF as follows.) (1 ng/ml)
Group 1 of test material addition: […], heparin (64 units), a-FGF (1 ng/ml), sample 3 (800 μg/ml)
Group 2 of test material addition: […], heparin (64 units), a-FGF (1 ng/ml), sample 3 (400 μg/ml)
Group 3 of test material addition: […], heparin (64 units), a-FGF (1 ng/ml), sample 3 (200 μg/ml)
Group 4 of test material addition: […], heparin (64 units), a-FGF (1 ng/ml), sample 4 (800 μg/ml)
Group 5 of test material addition: […], heparin (64 units), a-FGF (1 ng/ml), sample 1 (600 μg/ml)
Group 6 of test material addition: […], heparin (64 units), a-FGF (1 ng/ml), sample 2 (800 μg/ml)
Group 7 of test material addition: […], heparin (64 units), a-FGF (1 ng/ml), sample1+sample 3 (for each 200 μg/ml)
Group 8 of test material addition: […], heparin (64 units), a-FGF (1 ng/ml), sample 5 (600 μg/ml)
Group 9 of test material addition: […], heparin (64 units), a-FGF (1 ng/ml), reference sample 1 (800 μg/ml)
As is apparent from each table, in control group, angiogenesis was promoted remarkably and weight of […] and hemoglobin dosage were increased compared with a group 0 of nothing addition. […] However, the angiogenesis inhibition effect was small with reference sample 1 (hot water extract of an agaricus mushroom).

[3] = material 800 μg/mL in MATRIGEL with heparin and a-FGF
[4] = material 200 μg/mL in MATRIGEL with heparin and a-FGF
[5] = material 400 μg/mL in MATRIGEL with heparin and a-FGF

For O=C1CCC(C(=O)O)N1.[Na] (racemic) [sample 9, DL-pyroglutamic acid sodium], the “angiogenesis inhibition effect (in words)” value [1] was “slightly low, but almost equal to sample 8”, the MATRIGEL weight [1, 3] was 209.0 ± 30.8 mg and the Quantity of hemoglobin [1, 3] was 15.8 ± 2.7 mg/MATRIGEL.
Cl.NC(CCC(=O)O)C(=O)O (racemic) [sample 4, anhydrous DL-glutamate acid hydrochloride] was tested, and the “angiogenesis inhibition effect (in words)” value [2] was “slightly low, but almost equal to sample 3”, the “MATRIGEL Matrix weight” value [2, 3] was 237.3 ± 30.1 mg and the Quantity of hemoglobin [2, 3] was 13.0 ± 2.9 mg.
In the case of O=C1CC[C@@H](C(=O)O)N1.[Na] [sample 8, L-pyroglutamic acid sodium], the “angiogenesis inhibition effect (in words)” value [1] is reported as “excellent angiogenesis inhibition effect”, the MATRIGEL weight [1, 4] is reported as 265.3 ± 18.6 mg and the Quantity of hemoglobin [1, 4] is reported as 23.4 ± 2.0 mg/MATRIGEL. It also gave an MATRIGEL weight [1, 5] of 190.2 ± 30.4 mg, a Quantity of hemoglobin [1, 5] of 17.5 ± 3.6 mg/MATRIGEL and an MATRIGEL weight [1, 3] of 121.5 ± 28.1 mg. It also gave a Quantity of hemoglobin [1, 3] of 4.8 ± 1.2 mg/MATRIGEL.
For Cl.N[C@@H](CCC(=O)O)C(=O)O [sample 3, anhydrous L-glutamate acid hydrochloride], the “angiogenesis inhibition effect (in words)” value [2] was “excellent angiogenesis inhibition effect”, the “MATRIGEL Matrix weight” value [2, 4] was 276.6 ± 27.6 mg and the Quantity of hemoglobin [2, 4] was 21.5 ± 4.0 mg. The “MATRIGEL Matrix weight” value [2, 5] was 232.2 ± 52.7 mg, the Quantity of hemoglobin [2, 5] was 15.5 ± 4.6 mg and the “MATRIGEL Matrix weight” value [2, 3] was 110.9 ± 11.4 mg. It also gave a Quantity of hemoglobin [2, 3] of 3.9 ± 0.5 mg.
For O=C(O)[C@@H]1CCCN1 [proline, reference compound], the “angiogenesis inhibition effect (in words)” value [1] was “not recognized”.
With C[C@H](N)C(=O)O [alanine, reference compound] the “angiogenesis inhibition effect (in words)” value [1] was “not recognized”.
